Reference: patent publication US11390609B2, “Rho-associated protein kinase inhibitor, pharmaceutical composition comprising same, and preparation method and use thereof” (BEIJING TIDE PHARMACEUTICAL CO., LTD., priority 2017, dated 2022)

Legend:
ROCK2 = ROCK2 (Homo sapiens, UniProt O75116); test: ROCK2 kinase IC50 assay (CISBIO HTRF KinEASE-STK S2 kit); assay type: biochemical; details: incubated at room temperature for 2 hours
How it was run: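 HTRF KinEASE-STK S2 format with recombinant ROCK2 (1.4 ng per well), STK-S2 substrate and ATP from 5× working solutions of 1.5 μM each, run 2 h at room temperature. Nine-point dilutions from 10000 nM top concentration; 665/615 nm emission ratio normalised to no-compound and no-kinase controls, curve-fitted for IC50.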

ROCK1 = ROCK1 (Homo sapiens (Human), UniProt Q13464); test: ROCK1 kinase IC50 assay (biological test method similar to the ROCK2 assay); assay type: biochemical
Chain of ROCK1 (Q13464 whole entry, species assumed): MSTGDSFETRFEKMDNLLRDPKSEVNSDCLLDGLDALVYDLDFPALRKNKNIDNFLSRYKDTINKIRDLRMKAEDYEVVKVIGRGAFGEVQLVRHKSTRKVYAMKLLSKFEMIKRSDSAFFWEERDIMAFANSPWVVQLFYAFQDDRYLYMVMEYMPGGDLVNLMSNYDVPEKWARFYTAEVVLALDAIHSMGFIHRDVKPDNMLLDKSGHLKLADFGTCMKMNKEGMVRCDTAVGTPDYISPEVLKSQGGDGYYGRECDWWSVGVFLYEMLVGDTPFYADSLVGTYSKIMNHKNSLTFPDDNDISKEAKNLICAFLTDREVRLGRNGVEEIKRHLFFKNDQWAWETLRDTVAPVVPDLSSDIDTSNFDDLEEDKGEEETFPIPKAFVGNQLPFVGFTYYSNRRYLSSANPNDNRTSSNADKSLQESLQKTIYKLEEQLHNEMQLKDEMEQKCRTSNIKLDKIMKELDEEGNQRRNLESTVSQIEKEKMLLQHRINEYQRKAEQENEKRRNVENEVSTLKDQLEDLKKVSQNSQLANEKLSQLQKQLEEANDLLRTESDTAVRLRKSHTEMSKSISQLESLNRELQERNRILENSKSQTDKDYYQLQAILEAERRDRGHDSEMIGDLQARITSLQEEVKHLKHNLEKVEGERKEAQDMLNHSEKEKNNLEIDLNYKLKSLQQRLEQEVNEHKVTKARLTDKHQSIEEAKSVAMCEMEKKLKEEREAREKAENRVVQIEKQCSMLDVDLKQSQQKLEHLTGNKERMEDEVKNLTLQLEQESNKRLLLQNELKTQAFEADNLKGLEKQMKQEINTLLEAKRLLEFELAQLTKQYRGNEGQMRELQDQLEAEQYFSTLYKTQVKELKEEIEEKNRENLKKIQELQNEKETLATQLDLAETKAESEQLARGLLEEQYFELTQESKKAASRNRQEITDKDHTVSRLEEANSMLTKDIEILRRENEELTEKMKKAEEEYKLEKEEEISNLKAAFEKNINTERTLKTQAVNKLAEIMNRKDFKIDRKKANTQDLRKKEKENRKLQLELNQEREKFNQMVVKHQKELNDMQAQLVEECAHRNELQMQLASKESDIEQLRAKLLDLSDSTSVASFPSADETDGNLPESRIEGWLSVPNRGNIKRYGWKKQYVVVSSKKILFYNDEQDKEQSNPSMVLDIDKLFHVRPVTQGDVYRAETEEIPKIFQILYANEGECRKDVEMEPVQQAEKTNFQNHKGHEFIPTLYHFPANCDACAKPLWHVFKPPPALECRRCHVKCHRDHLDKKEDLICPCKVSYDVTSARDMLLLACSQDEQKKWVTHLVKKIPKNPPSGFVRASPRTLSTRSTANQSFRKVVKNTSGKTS
How it was run: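 HTRF KinEASE-STK S2 assay with the STK-S2 biotinylated substrate and ATP, at 5× working solutions of 1.5 µM each. Kinase reaction with 9-point compound dilutions ran 2 h at room temperature, followed by 1 h streptavidin-XL665/Cryptate detection. The 665/615 nm ratio was normalised to no-compound and no-kinase wells, and IC50 was obtained by curve fitting.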

Row | Compound | IC50 (ROCK2) | IC50 (ROCK1)
1 | Cn1c(C(=O)N2CC(F)(F)C2)cc2ccc(-c3ncnc(Nc4ccc(-c5cn[nH]c5)cc4)n3)cc21 [TDI01532, (6-(4-((4-(1H-pyrazol-4-yl)phenyl)amino)-1,3,5-triazin-2-yl)-1-methyl-1H-indol-2-yl)(3,3-difluoroazetidin-1-yl)methanone] | 49 nM | > 10 µM
2 | O=C(C1CC(F)(F)C1)N1Cc2ccc(-c3ncnc(Nc4ccc(-c5cn[nH]c5)cc4)n3)cc2C1 [TDI01536, (5-(4-((4-(1H-pyrazol-4-yl)phenyl)amino)-1,3,5-triazin-2-yl)isoindolin-2-yl)(3,3-difluorocyclobutyl)methanone] | 105 nM | > 10 µM
3 | CN1CCC(OC(=O)N2Cc3ccc(-c4nccc(Nc5ccc(-c6cn[nH]c6)cc5)n4)cc3C2)C1 (centres unmarked) [TDI01552, 1-methylpyrrolidin-3-yl5-(4-((4-(1H-pyrazol-4-yl)phenyl)amino)pyrimidin-2-yl)isoindoline-2-carboxylate] | 51 nM | 2.95 µM
4 | O=C(N1CCN(C2COC2)CC1)N1Cc2ccc(-c3nccc(Nc4ccc(-c5cn[nH]c5)cc4)n3)cc2C1 [TDI01555, (5-(4-((4-(1H-pyrazol-4-yl)phenyl)amino)pyrimidin-2-yl)isoindolin-2-yl)(4-(oxetan-3-yl)piperazin-1-yl)methanone] | 140 nM | > 10 µM
5 | O=C(OC1CC(F)(F)C1)N1Cc2ccc(-c3nccc(Nc4ccc(-c5cn[nH]c5)cc4)n3)cc2C1 [TDI01562, 3,3-difluorocyclobutyl 5-(4-((4-(1H-pyrazol-4-yl)phenyl)amino)pyrimidin-2-yl)isoindoline-2-carboxylate] | 23 nM | > 10 µM
6 | O=C(O)c1cnc(-c2ccc3c(c2)CN(C(=O)C2CC(F)(F)C2)C3)nc1Nc1ccc(-c2cn[nH]c2)cc1 [TDI01567C] | 29 nM | > 10 µM
7 | O=C(C1CC(F)(F)C1)N1CCc2ccc(-c3nccc(Nc4ccc5[nH]ncc5c4)n3)cc2C1 [TDI01575, (7-(4-((1H-indazol-5-yl)amino)pyrimidin-2-yl)-3,4-dihydroisoquinolin-2(1H)-yl)(3,3-difluorocyclobutyl) methanone] | 169 nM | > 10 µM
8 | O=C(c1cc2ccc(-c3ncnc(Nc4ccc(-c5cn[nH]c5)cc4)n3)cc2[nH]1)N1CC(F)(F)C1 [TDI01581, (6-(4-((4-(1H-pyrazol-4-yl)phenyl)amino)-1,3,5-triazin-2-yl)-1H-indol-2-yl)(3,3-difluoroazetidin-1-yl)methanone] | 28 nM | > 10 µM
9 | CC(=O)N1Cc2nc(-c3ccc4c(c3)CN(C(=O)C3CC(F)(F)C3)C4)nc(Nc3ccc(-c4cn[nH]c4)cc3)c2C1 [TDI01587, 1-(4-((4-(1H-pyrazol-4-yl)phenyl)amino)-2-(2-(3,3-difluorocyclobutane-1-carbonyl)isoindolin-5-yl)-5,7-dihydro-6H-pyrrolo[3,4-d]pyrimidin-6-yl)ethan-1-one] | 25 nM | > 10 µM
10 | O=C(C1CC(F)(F)C1)N1CCc2cc(-c3ncc(F)c(Nc4ccc(-c5cn[nH]c5)cc4)n3)ccc2C1 [TDI01596, (6-(4-((4-(1H-pyrazol-4-yl)phenyl)amino)-5-fluoropyrimidin-2-yl)-3,4-dihydroisoquinolin-2(1H)-yl)(3,3-difluorocyclobutyl)methanone] | 275 nM | > 10 µM

The next lines start with the values.

Row | IC50 (ROCK2) | IC50 (ROCK1) | Compound
11 | 198 nM | 4.93 µM | Cn1c(C(=O)N2CC(C(F)(F)F)C2)cc2ccc(-c3nccc(Nc4ccc(-c5cn[nH]c5)cc4)n3)cc21 [TDI01538, (6-(4-((4-(1H-pyrazol-4-yl)phenyl)amino)pyrimidin-2-yl)-1-methyl-1H-indol-2-yl)(3-(trifluoromethyl)azetidin-1-yl)methanone]
12 | 26 nM | 1.55 µM | O=C(C1CC2(CCNCC2)C1)N1Cc2ccc(-c3nccc(Nc4ccc(-c5cn[nH]c5)cc4)n3)cc2C1 [TDI01546, (5-(4-((4-(1H-pyrazol-4-yl)phenyl)amino)pyrimidin-2-yl)isoindolin-2-yl)(7-azaspiro[3.5]nonan-2-yl)methanone]
13 | 31 nM | 1.73 µM | O=C(OC1CCNC1)N1Cc2ccc(-c3nccc(Nc4ccc(-c5cn[nH]c5)cc4)n3)cc2C1 (centres unmarked) [TDI01551, pyrrolidin-3-yl 5-(4-((4-(1H-pyrazol-4-yl)phenyl)amino)pyrimidin-2-yl)isoindoline-2-carboxylate]
14 | 49 nM | > 10 µM | CC(C)(C)OC(=O)N1Cc2ccc(-c3nccc(Nc4ccc(-c5cn[nH]c5)cc4)n3)cc2C1 [TDI01557B, tert-butyl 5-(4-((4-(1H-pyrazol-4-yl)phenyl)amino)pyrimidin-2-yl)isoindoline-2-carboxylate]
15 | 170 nM | > 10 µM | O=C(OCc1ccccc1)N1Cc2ccc(-c3nccc(Nc4ccc(-c5cn[nH]c5)cc4)n3)cc2C1 [TDI01559, benzyl 5-(4-((4-(1H-pyrazol-4-yl)phenyl)amino)pyrimidin-2-yl)isoindolin-2-carboxylate]
16 | 83 nM | > 10 µM | O=C(C1CCOCC1)N1Cc2ccc(-c3nccc(Nc4ccc(-c5cn[nH]c5)cc4)n3)cc2C1 [TDI01560, (5-(4-((4-(1H-pyrazol-4-yl)phenyl)amino)pyrimidin-2-yl)isoindolin-2-yl)(tetrahydro-2H-pyran-4-yl)methanone]
17 | 205 nM | > 10 µM | O=C(C1CC(O)C1)N1Cc2ccc(-c3nccc(Nc4ccc(-c5cn[nH]c5)cc4)n3)cc2C1 (centres unmarked) [TDI01561, (5-(4-((4-(1H-pyrazol-4-yl)phenyl)amino)pyrimidin-2-yl)isoindolin-2-yl)(3-hydroxycyclobutyl) methanone]
18 | 57 nM | > 10 µM | O=C(C1CC(F)(F)C1)N1Cc2ccc(-c3nc(Nc4ccc(-c5cn[nH]c5)cc4)c4cc[nH]c4n3)cc2C1 [TDI01565, (5-(4-((4-(1H-pyrazol-4-yl)phenyl)amino)-7H-pyrrolo[2,3-d]pyrimidin-2-yl)isoindolin-2-yl)(3,3-difluorocyclobutyl)methanone]
19 | 65 nM | > 10 µM | NC(=O)c1cnc(-c2ccc3c(c2)CN(C(=O)C2CC(F)(F)C2)C3)nc1Nc1ccc(-c2cn[nH]c2)cc1 [TDI01567, 4-((4-(1H-pyrazol-4-yl)phenyl)amino)-2-(2-(3,3-difluorocyclobutane-1-carbonyl)isoindolin-5-yl)pyrimidin-5-carboxamide]
20 | 39 nM | > 10 µM | O=C(C1CC(F)(F)C1)N1Cc2ccc(-c3ncc(F)c(Nc4ccc5[nH]ncc5c4)n3)cc2C1 [TDI01589, (5-(4-((1H-indazol-5-yl)amino)-5-fluoropyrimidin-2-yl)isoindolin-2-yl)(3,3-difluorocyclobutyl)methnone]
21 | 266 nM | > 10 µM | O=C1c2cc(-c3ncc(F)c(Nc4ccc(-c5cn[nH]c5)cc4)n3)ccc2CN1CC1CC(F)(F)C1 [TDI01590, 6-(4-((4-(1H-pyrazol-4-yl)phenyl)amino)-5-fluoropyrimidin-2-yl)-2-((3,3-difluorocyclobutyl)methyl)isoindolin-1-one]
22 | 123 nM | > 10 µM | O=C(CC1CCOC1)N1Cc2ccc(-c3nccc(Nc4ccc(-c5cn[nH]c5)cc4)n3)cc2C1 (centres unmarked) [TDI01597B, 1-(5-(4-((4-(1H-pyrazol-4-yl)phenyl)amino)pyrimidin-2-yl)isoindolin-2-yl)-2-(tetrahydrofuran-3-yl)ethan-1-one]
